Measured values: US20220265658A1, “PHARMACEUTICAL COMPOSITION COMPRISING A TETRAHYDROPYRAZOLOPYRIMIDINONE COMPOUND” (Idorsia Pharmaceuticals Ltd., priority 2019, published 2022)
pIC50: −log10 of the molar value. Values belong to the compound of their own block, whether it stands above or below them.

Columns and labels:
[1] = Gravimetric vapour sorption (GVS) hygroscopicity; format: physicochemical; settings: 25° C., mass change 40% to 80% RH, first adsorption scan
Method: Measurements are performed on a multi sample instrument SPS-100n (ProUmid, Ulm, Germany) operated in stepping mode at 25° C. The sample is allowed to equilibrate at 40% RH before starting a pre-defined humidity program (40-0-95-0-95-40% RH, steps of 5% ARH and with a maximal equilibration time of 24 hours per step are applied). About 20 to 30 mg of each sample is used. The hygroscopic classification is done on the basis of the European Pharmacopeia Technical Guide (1999, page 86), e.g., Non-hygroscopic: increase in mass is less than 0.2% mass/mass; slightly hygroscopic: increase in mass is less than 2% and equal to or greater than 0.2% mass/mass; hygroscopic: increase in mass is less than 15% and equal to or greater than 2% mass/mass. The mass change between 40% relative humidity and 80% relative humidity in the first adsorption scan is considered.

[2] = Stability testing of solid COMPOUND (powder in glass vial, HPLC 1 area vs reference stored at -20° C.); format: physicochemical; settings: 260 nm
Method: Samples were directly analyzed by HPLC without dilution (expected concentration 1000 μg/mL). The HPLC area of each treated sample was compared to the HPLC area of the reference samples.
HPLC system: High pressure mixing Shimadzu Prominence (HPLC_08_DAD); Flow: 1.5 mL/min; Column temperature: 50° C.; Autosampler temperature: 25° C.; Injection volume: 3.0 μL; Column: Waters XBridge BEH C18 2.5 μm 2.1*50 mm Column XP; Wavelength: DAD 260 nm

C5AR1 = molecular target: T1, C5AR1 (Homo sapiens, UniProt P21730); test: In vitro assay: CHO-K1 C5AR1 beta-arrestin cell line (PathHunter), antagonism of C5a; format: cell-based; settings: 1-10 nM C5a agonist; geometric mean; read-out: antagonistic activity (IC50)
T1 construct: host or cells: CHO-K1
T1 sequence (P21730 1-350): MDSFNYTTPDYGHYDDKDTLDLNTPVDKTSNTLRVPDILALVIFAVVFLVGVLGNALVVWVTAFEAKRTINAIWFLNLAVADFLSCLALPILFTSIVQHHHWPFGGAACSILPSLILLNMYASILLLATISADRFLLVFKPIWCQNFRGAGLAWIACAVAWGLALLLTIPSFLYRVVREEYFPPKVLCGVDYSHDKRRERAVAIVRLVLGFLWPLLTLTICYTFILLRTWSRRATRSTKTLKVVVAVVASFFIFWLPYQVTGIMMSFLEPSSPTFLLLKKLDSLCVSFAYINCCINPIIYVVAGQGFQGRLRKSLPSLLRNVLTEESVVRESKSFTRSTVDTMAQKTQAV
Method: Adherent cells (CHO-K1 C5AR1 beta-arrestin cell line, DiscoverX, CA USA) are washed with PBS, detached by incubation with Dissociation Buffer (Gibco Cat #13151-014, 2 ml per 165 cm2 dish) for 3 minutes, then washed with 10 ml PBS (without Mg++ and Ca++) and counted. 7500 cells/384-well are seeded in 384-well plates (Cell culture plate MTP384 white Polystyrene, Corning, Cat #3570) in 20 μl/well Cell plating medium (F12 HAMs/10% FCS/1% P/S) and incubated at 37° C./5% CO2/24 h.
5 μl Antagonist at 6-fold end concentration or DMSO control is added to assay medium and subsequently 5 μl 1-10 nM C5a agonist at 6 fold end concentration. Cells are centrifuged for 1 min at 1000 rpm and incubated for 1.5 hour in at 37° C. Plates are equilibrated at room temperature for several minutes before adding 12 μl/well Detection Reagent (PathHunter Detection Kit, DiscoverX, Cat #93-0001). Plates are centrifuged for 1 min at 1000 rpm and incubated for 45 minutes at RT before being measured on a Fluostar Optima, BMG Labtech. IC50 values are calculated from a serial dilution range of antagonist using inhouse software and given in nmol/l.
The calculated IC50 values may fluctuate depending on the daily cellular assay performance. Fluctuations of this kind are known to those skilled in the art. Average IC50 values from several measurements are given as geometric mean values.

[3] = log P measured in octanol/phosphate buffer saline pH 7.4; format: physicochemical
Source text: […]

- Hygroscopicity as measured by GVS [1]: non-hygroscopic
- HPLC 1 area compared to a reference that was stored at −20° C. for the same amount of time ([2]; closed vial for 30 days at 40° C. and 75% relative humidity, listed as Form 1): 100%
- HPLC 1 area compared to a reference that was stored at −20° C. for the same amount of time ([2]; closed vial for 30 days at room temperature and day light exposure, listed as Form 1): 100%
Structure (SMILES): Cc1cccc(F)c1N1CCC(N2Cc3cn(CC(C)(F)F)nc3N(Cc3ccccc3C(F)(F)F)C2=O)CC1 [COMPOUND in crystalline form 1, 2-(2,2-Difluoro-propyl)-5-[1-(2-fluoro-6-methyl-phenyl)-piperidin-4-yl]-7-(2-trifluoromethyl-benzyl)-2,4,5,7-tetrahydro-pyrazolo[3,4-d]pyrimidin-6-one]

- HPLC 1 area compared to a reference that was stored at −20° C. for the same amount of time ([2]; closed vial for 30 days at 40° C. and 75% relative humidity): 79%
- HPLC 1 area compared to a reference that was stored at −20° C. for the same amount of time ([2]; closed vial for 30 days at room temperature and day light exposure): 57%
Structure (SMILES): Cc1cccc(F)c1N1CCC(N2Cc3cn(CC(C)(F)F)nc3N(Cc3ccccc3C(F)(F)F)C2=O)CC1 [Amorphous, 2-(2,2-Difluoro-propyl)-5-[1-(2-fluoro-6-methyl-phenyl)-piperidin-4-yl]-7-(2-trifluoromethyl-benzyl)-2,4,5,7-tetrahydro-pyrazolo[3,4-d]pyrimidin-6-one]

- pIC50 (C5AR1): 7.96
- logP [3]: 6.9
Structure (SMILES): Cc1cccc(F)c1N1CCC(N2Cc3cn(CC(C)(F)F)nc3N(Cc3ccccc3C(F)(F)F)C2=O)CC1 [COMPOUND, 2-(2,2-Difluoro-propyl)-5-[1-(2-fluoro-6-methyl-phenyl)-piperidin-4-yl]-7-(2-trifluoromethyl-benzyl)-2,4,5,7-tetrahydro-pyrazolo[3,4-d]pyrimidin-6-one]
